Test results as given in patent US20240101570A1 (AMGEN INC., priority 2020, published 2024).

Experiments:
[1] = test system: HCT116 MTAP null cells; test: HCT116 MTAP null cell proliferation / viability (CellTiter-Glo, 6 days); format: cell-based; conditions: HCT116-MTAP null, 144 h, HCT116 MTAP null cells, 6 days, CellTiter-Glo; read-out: HCT-116 MTAP null IC50
In short: (§1)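 IC50 values derive from sigmoidal dose-response fits, some with Hill slope fixed at −1 and top constrained to 100%, others from 4-parameter logistic models. They reflect CellTiter-Glo viability after 6 days of compound exposure at up to 10 or 50 μM.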

[2] = test system: HCT116 WT cells; test: HCT116 WT cell proliferation / viability (CellTiter-Glo, 6 days); format: cell-based; conditions: Homo sapiens, HCT-116, 144 h, HCT116 WT cells, 6 days, CellTiter-Glo; read-out: HCT-116 WT IC50
In short: as §1

IC50 [1]	IC50 [2]	Structure (SMILES)
157 nM	7280 nM	CC(C)N(Cc1ccc(C2CC2)cn1)C(=O)c1cc2c3c(c(N)nc2cn1)COC3 [Example 385, 4-amino-N-((5-cyclopropyl-2-pyridinyl)methyl)-N-(2-propanyl)-1,3-dihydrofuro[3,4-c][1,7]naphthyridine-8-carboxamide]
455 nM	30300 nM	C[C@H]1OCc2c1c(N)nc1ccc(C(=O)N(C)Cc3ccc(C#N)cn3)cc21 [Example 386, (3R)-4-amino-N-((5-cyano-2-pyridinyl)methyl)-N,3-dimethyl-1,3-dihydrofuro[3,4-c]quinoline-8-carboxamide]
175 nM	4040 nM	CCOc1ccc(CN(C(=O)c2ccc3nc(N)c4c(c3c2)COC4)C23CC(C2)C3)nn1 [Example 387, 4-amino-N-(bicyclo[1.1.1]pentan-1-yl)-N-((6-ethoxy-3-pyridazinyl)methyl)-1,3-dihydrofuro[3,4-c]quinoline-8-carboxamide]
54 nM	1280 nM	CCOc1ccc(CN(C(=O)c2cc3c4c(c(N)nc3cn2)COC4)[C@H](C)COC)nn1 [Example 388, 4-amino-N-((6-ethoxy-3-pyridazinyl)methyl)-N-((2R)-1-methoxy-2-propanyl)-1,3-dihydrofuro[3,4-c][1,7]naphthyridine-8-carboxamide]
50 nM	3390 nM	CN(Cc1ccc(C(F)(F)F)nn1)C(=O)c1cc2c3c(c(N)nc2cc1Cl)COC3 [Example 389, 4-amino-7-chloro-N-methyl-N-((6-(trifluoromethyl)-3-pyridazinyl)methyl)-1,3-dihydrofuro[3,4-c]quinoline-8-carboxamide]
91 nM	4540 nM	CC(C)N(Cc1ccc(C(F)(F)F)nn1)C(=O)c1ccc2nc(N)c3c(c2c1)COC3 [Example 391, 4-amino-N-(2-propanyl)-N-((6-(trifluoromethyl)-3-pyridazinyl)methyl)-1,3-dihydrofuro[3,4-c]quinoline-8-carboxamide]
57 nM	1540 nM	CC(C)N(Cc1ccc(C#N)cn1)C(=O)c1cc2c3c(c(N)nc2cc1Cl)COC3 [Example 392, 4-amino-7-chloro-N-((5-cyano-2-pyridinyl)methyl)-N-(2-propanyl)-1,3-dihydrofuro[3,4-c]quinoline-8-carboxamide]
113 nM	6930 nM	CC(C)N(Cc1ccc(C(F)(F)F)nn1)C(=O)c1ccc2nc(N)c3c(c2c1)CO[C@@H]3C [Example 393, (3R)-4-amino-3-methyl-N-(2-propanyl)-N-((6-(trifluoromethyl)-3-pyridazinyl)methyl)-1,3-dihydrofuro[3,4-c]quinoline-8-carboxamide]
30 nM	831 nM	CC(C)N(Cc1ccc(C(F)(F)F)nn1)C(=O)c1cc2c3c(c(N)nc2cc1Cl)COC3 [Example 394, 4-amino-7-chloro-N-(2-propanyl)-N-((6-(trifluoromethyl)-3-pyridazinyl)methyl)-1,3-dihydrofuro[3,4-c]quinoline-8-carboxamide]
31 nM	535 nM	Nc1nc2cc(Cl)c(C(=O)N(Cc3ccc(C(F)(F)F)cn3)C34CC(C3)C4)cc2c2c1COC2 [Example 395, 4-amino-N-(bicyclo[1.1.1]pentan-1-yl)-7-chloro-N-((5-(trifluoromethyl)-2-pyridinyl)methyl)-1,3-dihydrofuro[3,4-c]quinoline-8-carboxamide]
20 nM	629 nM	C[C@H]1OCc2c1c(N)nc1cnc(C(=O)N(Cc3ccc(C(F)(F)F)cn3)CC3CC3)cc21 [Example 396, (3R)-4-amino-N-(cyclopropylmethyl)-3-methyl-N-((5-(trifluoromethyl)-2-pyridinyl)methyl)-1,3-dihydrofuro[3,4-c][1,7]naphthyridine-8-carboxamide]
55 nM	1100 nM	CCOc1ccc(CN(C(=O)c2cc3c4c(c(N)nc3cn2)[C@@H](C)OC4)[C@H](C)COC)nn1 [Example 397, (3R)-4-amino-N-((6-ethoxy-3-pyridazinyl)methyl)-N-((2R)-1-methoxy-2-propanyl)-3-methyl-1,3-dihydrofuro[3,4-c][1,7]naphthyridine-8-carboxamide]
49 nM	1390 nM	CC1(CN(Cc2ccc(C(F)(F)F)cn2)C(=O)c2cc3c4c(c(N)nc3cn2)COC4)CC1 [Example 398, 4-amino-N-((1-methylcyclopropyl)methyl)-N-((5-(trifluoromethyl)-2-pyridinyl)methyl)-1,3-dihydrofuro[3,4-c][1,7]naphthyridine-8-carboxamide]
393 nM	4430 nM	CN(Cc1ccc(C(F)(F)F)cc1)C(=O)c1ccc2nc(N)c3c(c2c1)COC3 [Example 399, 4-amino-N-methyl-N-(4-(trifluoromethyl)benzyl)-1,3-dihydrofuro[3,4-c]quinoline-8-carboxamide]
970 nM	> 10000 nM	CN(Cc1ccc(C(F)(F)F)nc1)C(=O)c1ccc2nc(N)c3c(c2c1)COC3 [Example 400, 4-amino-N-methyl-N-((6-(trifluoromethyl)-3-pyridinyl)methyl)-1,3-dihydrofuro[3,4-c]quinoline-8-carboxamide]
84 nM	3080 nM	CC(C)N(Cc1ccc(C2CC2)nc1)C(=O)c1cc2c3c(c(N)nc2cc1Cl)COC3 [Example 401, 4-amino-7-chloro-N-((6-cyclopropyl-3-pyridinyl)methyl)-N-(2-propanyl)-1,3-dihydrofuro[3,4-c]quinoline-8-carboxamide]
≥ 10000 nM	> 10000 nM	CC(C)N(Cc1ccc(C2CC2)nc1)C(=O)c1cc2c3c(c(N)nc2cn1)[C@H](C)OC3 [Example 403, (3S)-4-amino-N-((6-cyclopropyl-3-pyridinyl)methyl)-3-methyl-N-(2-propanyl)-1,3-dihydrofuro[3,4-c][1,7]naphthyridine-8-carboxamide]
180 nM	11400 nM	CC(C)N(Cc1ccc(C#N)cn1)C(=O)c1cc2c3c(c(N)nc2cn1)[C@@H](C)OC3 [Example 404, (3R)-4-amino-N-((5-cyano-2-pyridinyl)methyl)-3-methyl-N-(2-propanyl)-1,3-dihydrofuro[3,4-c][1,7]naphthyridine-8-carboxamide]
362 nM	> 10000 nM	C[C@H]1OCc2c1c(N)nc1cnc(C(=O)N(Cc3ccc(C(F)(F)F)nn3)C3CC3)cc21 [Example 405, (3R)-4-amino-N-cyclopropyl-3-methyl-N-((6-(trifluoromethyl)-3-pyridazinyl)methyl)-1,3-dihydrofuro[3,4-c][1,7]naphthyridine-8-carboxamide]
97 nM	4140 nM	CC(C)N(Cc1ccc(C2CC2)cn1)C(=O)c1cc2c3c(c(N)nc2cn1)[C@@H](C)OC3 [Example 406, (3R)-4-amino-N-((5-cyclopropyl-2-pyridinyl)methyl)-3-methyl-N-(2-propanyl)-1,3-dihydrofuro[3,4-c][1,7]naphthyridine-8-carboxamide]
3660 nM	> 10000 nM	CC(C)N(Cc1ccc(C2CC2)cn1)C(=O)c1cc2c3c(c(N)nc2cn1)[C@H](C)OC3 [Example 407, (3S)-4-amino-N-((5-cyclopropyl-2-pyridinyl)methyl)-3-methyl-N-(2-propanyl)-1,3-dihydrofuro[3,4-c][1,7]naphthyridine-8-carboxamide]
86 nM	3350 nM	CCN(Cc1ccc(C(F)(F)F)cn1)C(=O)c1cc2c3c(c(N)nc2cn1)[C@@H](C)OC3 [Example 408, (3R)-4-amino-N-ethyl-3-methyl-N-((5-(trifluoromethyl)-2-pyridinyl)methyl)-1,3-dihydrofuro[3,4-c][1,7]naphthyridine-8-carboxamide]
56 nM	5870 nM	CCOc1ccc(CN(C(=O)c2cc3c4c(c(N)nc3cn2)[C@@H](C)OC4)C23CC(C2)C3)nn1 [Example 409, (3R)-4-amino-N-(bicyclo[1.1.1]pentan-1-yl)-N-((6-ethoxy-3-pyridazinyl)methyl)-3-methyl-1,3-dihydrofuro[3,4-c][1,7]naphthyridine-8-carboxamide]
87 nM	3260 nM	COC[C@@H](C)N(Cc1ccc(Br)nn1)C(=O)c1cc2c3c(c(N)nc2cn1)[C@@H](C)OC3 [Example 410, (3R)-4-amino-N-((6-bromo-3-pyridazinyl)methyl)-N-((2R)-1-methoxy-2-propanyl)-3-methyl-1,3-dihydrofuro[3,4-c][1,7]naphthyridine-8-carboxamide]
181 nM	13600 nM	C[C@H]1OCc2c1c(N)nc1cnc(C(=O)N(C)Cc3ccc(C(F)(F)F)cn3)cc21 [Example 411, (3R)-4-amino-N,3-dimethyl-N-((5-(trifluoromethyl)-2-pyridinyl)methyl)-1,3-dihydrofuro[3,4-c][1,7]naphthyridine-8-carboxamide]
397 nM	25600 nM	CC(C)N(Cc1ccc(C2CC2)nc1)C(=O)c1cc2c3c(c(N)nc2cn1)[C@@H](C)OC3 [Example 412, (3R)-4-amino-N-((6-cyclopropyl-3-pyridinyl)methyl)-3-methyl-N-(2-propanyl)-1,3-dihydrofuro[3,4-c][1,7]naphthyridine-8-carboxamide]
870 nM	20300 nM	COC(=O)N1CCN(c2ccc(CN(C)C(=O)c3ccc4nc(N)c5c(c4c3)COC5)nc2)CC1 [Example 413, methyl 4-(6-((((4-amino-1,3-dihydrofuro[3,4-c]quinolin-8-yl)carbonyl)(methyl)amino)methyl)-3-pyridinyl)-1-piperazinecarboxylate]
5860 nM	> 50000 nM	C[C@@H]1OCc2c1c(N)nc1cnc(C(=O)N(C)Cc3ccc(C4CC4)cn3)cc21 [Example 414, (3S)-4-amino-N-((5-cyclopropyl-2-pyridinyl)methyl)-N,3-dimethyl-1,3-dihydrofuro[3,4-c][1,7]naphthyridine-8-carboxamide]
